Experimental data taken from patent publication US8691517B2, “Flexible carbohydrate-bearing polymer” (Medtronic Minimed, Inc., priority 2005, dated 2014).

Biological target: MBL (Homo sapiens, UniProt P11226)
Assay: affinity of monomeric saccharide unit to MBL
Assay type: binding

Chain of MBL (P11226 21-248): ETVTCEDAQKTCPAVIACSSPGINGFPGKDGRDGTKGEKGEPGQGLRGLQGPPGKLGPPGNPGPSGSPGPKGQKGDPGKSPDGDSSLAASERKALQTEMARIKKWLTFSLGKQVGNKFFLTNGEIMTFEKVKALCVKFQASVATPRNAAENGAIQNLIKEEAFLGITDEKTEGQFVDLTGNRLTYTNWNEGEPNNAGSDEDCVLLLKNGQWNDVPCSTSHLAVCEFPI

## O=C[C@H](O)[C@@H](O)[C@@H](O)[C@H](O)CO [galactose]
  IC50: ~36 mM

## CC(=O)N[C@H]1C(O)O[C@H](CO)[C@@H](O)[C@@H]1O (some centres unmarked) [N-acetyl-glucosamine]
  IC50: ~6 mM
